# Test results from the supplement of paper PMC10307832.
# Key:
# Assay in all cases: relative viability (nuclei count vs DMSO), 5 days (fraction); higher = more cells survive
# AZD1208 + Olaparib = compound: N[C@@H]1CCCN(c2c(/C=C3\SC(=O)NC3=O)cccc2-c2ccccc2)C1 [AZD1208] + O=C(c1cc(Cc2n[nH]c(=O)c3ccccc23)ccc1F)N1CCN(C(=O)C2CC2)CC1 [Olaparib] (partner 8 µM)
# Procedure, shortened: (§1)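 Lung cancer cell lines were pin-tool dosed in 1536-well plates on the day after seeding, with either a lone drug or a fixed anchor-drug dose plus five library-drug doses (not always all listed) in √10 steps. Nuclei were counted on 4× images after 5 days. Relative viability is the ratio of treated-well to vehicle-well nuclei counts, with each value a median of duplicate plates.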
# AZD1208 + Tozasertib = compound: N[C@@H]1CCCN(c2c(/C=C3\SC(=O)NC3=O)cccc2-c2ccccc2)C1 [AZD1208] + Cc1cc(Nc2cc(N3CCN(C)CC3)nc(Sc3ccc(NC(=O)C4CC4)cc3)n2)n[nH]1 [Tozasertib] (partner 0.1 µM)
# Procedure, shortened: as §1
# XMD14-99 + Foretinib = compound: CN1CCN(CC1)C2=CC(=C(C=C2)NC3=NC(=C(S3)C(=O)C4=C(C=CC=C4Cl)Cl)N)OC [XMD14-99] + COc1cc2c(Oc3ccc(NC(=O)C4(C(=O)Nc5ccc(F)cc5)CC4)cc3F)ccnc2cc1OCCCN1CCOCC1 [Foretinib] (partner 0.25 µM)
# Procedure, shortened: as §1
# XMD14-99 + Pictilisib = compound: CN1CCN(CC1)C2=CC(=C(C=C2)NC3=NC(=C(S3)C(=O)C4=C(C=CC=C4Cl)Cl)N)OC [XMD14-99] + CS(=O)(=O)N1CCN(Cc2cc3nc(-c4cccc5[nH]ncc45)nc(N4CCOCC4)c3s2)CC1 [Pictilisib] (partner 1 µM)
# Procedure, shortened: as §1
Cell Line,relative viability (AZD1208 + Olaparib; first compound 0.08 µM),relative viability (AZD1208 + Olaparib; first compound 0.253 µM),relative viability (AZD1208 + Olaparib; first compound 0.8 µM),relative viability (AZD1208 + Olaparib; first compound 2.53 µM),relative viability (AZD1208 + Olaparib; first compound 8 µM),relative viability (AZD1208 + Tozasertib; first compound 0.08 µM),relative viability (AZD1208 + Tozasertib; first compound 0.253 µM),relative viability (AZD1208 + Tozasertib; first compound 0.8 µM),relative viability (AZD1208 + Tozasertib; first compound 2.53 µM),relative viability (AZD1208 + Tozasertib; first compound 8 µM),relative viability (XMD14-99 + Foretinib; first compound 0.08 µM),relative viability (XMD14-99 + Foretinib; first compound 0.8 µM),relative viability (XMD14-99 + Foretinib; first compound 2.53 µM),relative viability (XMD14-99 + Foretinib; first compound 8 µM),relative viability (XMD14-99 + Pictilisib; first compound 0.08 µM),relative viability (XMD14-99 + Pictilisib; first compound 0.8 µM),relative viability (XMD14-99 + Pictilisib; first compound 2.53 µM),relative viability (XMD14-99 + Pictilisib; first compound 8 µM)
NCI-H2342,0.49,0.383,0.372,0.456,0.376,0.454,0.499,0.453,0.418,0.421,1.15,0.943,0.973,0.784,–,–,–,–
SK-MES-1,0.697,0.715,0.672,0.653,0.577,1,0.956,0.903,0.853,0.744,1.01,0.927,0.971,0.745,0.407,0.327,0.349,0.247
NCI-H1993,0.777,0.973,0.911,0.968,0.736,0.667,0.52,0.526,0.566,0.543,0.804,0.674,0.643,0.595,0.888,0.759,0.766,0.798
HCC-366,0.352,0.311,0.283,0.316,0.281,0.118,0.125,0.12,0.098,0.0502,0.912,0.943,0.96,0.918,0.137,0.143,0.156,0.149
201T,0.876,0.84,0.866,0.868,0.909,0.959,0.934,0.865,0.803,0.649,1.05,1.1,1.01,0.956,0.7,0.666,0.658,0.619
HCC-827,0.623,0.669,0.389,0.641,0.338,0.445,0.409,0.412,0.385,0.401,1.06,0.935,0.978,0.727,1.1,0.895,0.917,0.998
NCI-H650,0.401,0.392,0.388,0.359,0.379,0.732,0.725,0.67,0.684,0.66,1.05,1.01,0.944,0.935,0.931,0.992,0.805,0.72
NCI-H2085,0.769,0.913,0.79,0.764,0.849,0.811,0.858,0.714,0.868,0.771,0.915,0.959,0.704,0.551,0.454,0.446,0.445,0.482
NCI-H596,0.706,0.563,0.717,0.632,0.564,0.896,0.925,0.77,0.733,0.592,0.957,0.895,0.832,0.955,0.399,0.413,0.35,0.396
SK-LU-1,0.446,0.419,0.367,0.448,0.436,0.298,0.298,0.246,0.285,0.22,0.818,0.803,0.758,0.477,0.554,0.576,0.545,0.344
A-427,0.674,0.758,0.605,0.713,0.661,0.196,0.195,0.212,0.18,0.185,1.04,0.988,0.814,0.712,0.694,0.784,0.607,0.448
NCI-H460,0.474,0.43,0.407,0.431,0.443,0.461,0.473,0.474,0.347,0.389,1.03,1.03,1.01,0.808,0.335,0.378,0.345,0.254
NCI-H1703,0.416,0.334,0.268,0.384,0.337,–,–,–,–,–,0.345,0.329,0.339,0.273,0.276,0.269,0.27,0.22
NCI-H1792,0.414,0.39,–,0.44,0.246,–,–,–,–,–,–,–,–,–,0.281,0.252,0.22,0.182
Calu-6,0.572,0.648,0.591,0.592,0.639,–,–,–,–,–,0.897,0.905,0.843,0.593,0.881,0.824,0.785,0.57
SW 1573,0.417,0.499,0.336,0.445,0.406,0.22,0.175,0.178,0.129,0.149,0.814,0.992,0.861,0.824,0.434,0.531,0.496,0.547
